US9944602B2, “Piperidinone herbicides” (E. I. DU PONT DE NEMOURS AND COMPANY, priority 2014, dated 2018)

Tests used:
[1] = test system: wheat (Triticum aestivum); assay: Test A postemergence wheat; assay type: in vivo; details: Triticum aestivum, post-emergence, 240 h, 0 to 100 scale, 0 is no effect, 100 is complete control, read-out: Plant response rating, Wheat
Summary of the method: (§1)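 Greenhouse pot test: chemicals formulated with surfactant in non-phytotoxic solvent, sprayed on soil at seeding (pre) or on 1–2 leaf seedlings of 2–10 cm (post). Rating ~10 d later, visual, 0 = no effect to 100 = complete control, relative to untreated controls.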

corn (Zea mays) = assay: Test A postemergence corn; assay type: in vivo; details: Zea mays, post-emergence, 240 h, 0 to 100 scale, 0 is no effect, 100 is complete control
Summary of the method: as §1

[2] = test system: ryegrass, Italian (Italian ryegrass, Lolium multiflorum); assay: Test A preemergence ryegrass, Italian; assay type: in vivo; details: Lolium multiflorum, pre-emergence, 240 h, 0 to 100 scale, 0 no effect, 100 complete control, read-out: Ryegrass, Italian plant response rating
Summary of the method: as §1

[3] = test system: barnyardgrass (Echinochloa crus-galli); assay: Test A preemergence barnyardgrass; assay type: in vivo; details: 0 to 100 scale
Summary of the method: as §1

[4] = test system: pigweed (Amaranthus retroflexus); assay: Test A preemergence pigweed; assay type: in vivo; details: Amaranthus retroflexus, pre-emergence, 240 h, 0 to 100 scale, 0 no effect, 100 complete control, read-out: Pigweed plant response rating
Summary of the method: as §1

kochia (Kochia scoparia) [5] = assay: Test A postemergence kochia; assay type: in vivo; details: Bassia scoparia, post-emergence, 240 h, 0 to 100 scale, 0 is no effect, 100 is complete control, read-out: Plant response rating, Kochia
Summary of the method: as §1

kochia (Kochia scoparia) [6] = assay: Test A preemergence kochia; assay type: in vivo; details: Bassia scoparia, pre-emergence, 240 h, 0 to 100 scale, 0 no effect, 100 complete control, read-out: Kochia plant response rating
Summary of the method: as §1

[7] = test system: blackgrass (Alopecurus myosuroides); assay: Test A postemergence blackgrass; assay type: in vivo; details: Alopecurus myosuroides, post-emergence, 240 h, 0 to 100 scale, 0 is no effect, 100 is complete control, read-out: Plant response rating, Blackgrass
Summary of the method: as §1

[8] = test system: ragweed (common ragweed, Ambrosia elatior); assay: Test A postemergence ragweed; assay type: in vivo; details: Ambrosia artemisiifolia, post-emergence, 240 h, 0 to 100 scale, 0 is no effect, 100 is complete control, read-out: Plant response rating, Ragweed
Summary of the method: as §1

rice (Oryza sativa) = assay: Test C flooded paddy test rice; assay type: in vivo; details: Table C, Flood, scale 0 to 100
Summary of the method: (§2)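 Test compounds were dosed straight into the flood water of pots holding 2-leaf-stage plants, with water kept 3 cm above the soil. Greenhouse plants were scored visually against controls after 13 to 15 d, from 0 (no effect) to 100 (complete control).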

[9] = test system: galium (catchweed bedstraw, Galium aparine); assay: Test A postemergence galium; assay type: in vivo; details: Galium, post-emergence, 240 h, 0 to 100 scale, 0 is no effect, 100 is complete control, read-out: Plant response rating, Galium
Summary of the method: as §1

[10] = test system: sedge, umbrella (small-flower umbrella sedge, Cyperus difformis); assay: Test C flooded paddy test sedge, umbrella; assay type: in vivo; details: Table C, Flood, scale 0 to 100
Summary of the method: as §2

[11] = test system: ryegrass, Italian (Italian ryegrass, Lolium multiflorum); assay: Test A postemergence ryegrass, Italian; assay type: in vivo; details: Lolium multiflorum, post-emergence, 240 h, 0 to 100 scale, 0 is no effect, 100 is complete control, read-out: Plant response rating, Ryegrass, Italian
Summary of the method: as §1

[12] = test system: barnyardgrass (Echinochloa crus-galli); assay: Test C flooded paddy test barnyardgrass; assay type: in vivo; details: Table C, Flood, scale 0 to 100
Summary of the method: as §2

[13] = test system: ragweed (common ragweed, Ambrosia elatior); assay: Test A preemergence ragweed; assay type: in vivo; details: Ambrosia artemisiifolia, pre-emergence, 240 h, 0 to 100 scale, 0 no effect, 100 complete control, read-out: Ragweed plant response rating
Summary of the method: as §1

[14] = test system: foxtail, giant (giant foxtail, Setaria faberii); assay: Test A postemergence foxtail, giant; assay type: in vivo; details: Setaria faberi, post-emergence, 240 h, 0 to 100 scale, 0 is no effect, 100 is complete control, read-out: Plant response rating, Foxtail, Giant
Summary of the method: as §1

[15] = test system: ducksalad (Heteranthera limosa); assay: Test C flooded paddy test ducksalad; assay type: in vivo; details: Table C, Flood, scale 0 to 100
Summary of the method: as §2

[16] = test system: pigweed (Amaranthus retroflexus); assay: Test A postemergence pigweed; assay type: in vivo; details: Amaranthus retroflexus, post-emergence, 240 h, 0 to 100 scale, 0 is no effect, 100 is complete control, read-out: Plant response rating, Pigweed
Summary of the method: as §1

[17] = test system: foxtail, giant (giant foxtail, Setaria faberii); assay: Test A preemergence foxtail, giant; assay type: in vivo; details: Setaria faberi, pre-emergence, 240 h, 0 to 100 scale, 0 no effect, 100 complete control, read-out: Foxtail, Giant plant response rating
Summary of the method: as §1

[18] = test system: barnyardgrass (Echinochloa crus-galli); assay: Test A postemergence barnyardgrass; assay type: in vivo; details: Echinochloa crus-galli, post-emergence, 240 h, 0 to 100 scale, 0 is no effect, 100 is complete control, read-out: Plant response rating, Barnyardgrass
Summary of the method: as §1

O=C1NCCC(c2ccc(C(F)(F)F)cc2)C1C(=O)Nc1cccc(F)c1F (stereo not shown) [Compound 11, N-(2,3-difluorophenyl)-2-oxo-4-[4-(trifluoromethyl)phenyl]-3-piperidinecarboxamide] showed a plant injury at 125 g/ha ([1]; 125 g ai/ha) of 0%, a plant injury at 500 g/ha ([1]; 500 g ai/ha) of 50% and a Corn plant response rating (crop injury, 0 = no effect, 100 = complete kill) at 125 g/ha (corn (Zea mays); 125 g ai/ha) of 0%. It also gave a Corn plant response rating (crop injury, 0 = no effect, 100 = complete kill) at 500 g/ha (corn (Zea mays); 500 g ai/ha) of 40%, a pest or weed control at 125 g/ha ([2]; 125 g ai/ha) of 0% and a pest or weed control at 500 g/ha ([2]; 500 g ai/ha) of 0%. The “Plant response rating, Barnyardgrass” value ([3]; 500 g ai/ha, 0 is no effect, 100 is complete control) was 90, the pest or weed control at 125 g/ha ([3]; Echinochloa crus-galli, pre-emergence, 240 h, 125 g ai/ha, 0 no effect, 100 complete control, read-out: Barnyardgrass plant response rating) was 60% and the pest or weed control at 125 g/ha ([4]; 125 g ai/ha) was 0%. The pest or weed control at 500 g/ha ([4]; 500 g ai/ha) was 40%, the pest or weed control at 125 g/ha (kochia (Kochia scoparia) [5]; 125 g ai/ha) was 20% and the pest or weed control at 500 g/ha (kochia (Kochia scoparia) [5]; 500 g ai/ha) was 50%. The pest or weed control at 125 g/ha (kochia (Kochia scoparia) [6]; 125 g ai/ha) was 0%, the pest or weed control at 500 g/ha (kochia (Kochia scoparia) [6]; 500 g ai/ha) was 60% and the pest or weed control at 125 g/ha ([7]; 125 g ai/ha) was 20%. It also gave a pest or weed control at 500 g/ha ([7]; 500 g ai/ha) of 50%, a pest or weed control at 125 g/ha ([8]; 125 g ai/ha) of 0% and a pest or weed control at 500 g/ha ([8]; 500 g ai/ha) of 20%. The Plant response rating (rice (Oryza sativa); 125 g ai/ha) was 0, the Plant response rating (rice (Oryza sativa); 250 g ai/ha) was 0 and the Plant response rating (rice (Oryza sativa); 500 g ai/ha) was 0. The Plant response rating (rice (Oryza sativa); 1000 g ai/ha) was 0, the melting point was 180 to 182 °C and the pest or weed control at 125 g/ha ([9]; 125 g ai/ha) was 40%. For the same molecule, the pest or weed control at 500 g/ha ([9]; 500 g ai/ha) was 60%, the Plant response rating ([10]; 125 g ai/ha) was 0 and the Plant response rating ([10]; 250 g ai/ha) was 0. For the same molecule, the Plant response rating ([10]; 500 g ai/ha) was 0, the Plant response rating ([10]; 1000 g ai/ha) was 0 and the pest or weed control at 125 g/ha ([11]; 125 g ai/ha) was 0%. It also gave a pest or weed control at 500 g/ha ([11]; 500 g ai/ha) of 30%, a Plant response rating ([12]; 125 g ai/ha) of 10 and a Plant response rating ([12]; 250 g ai/ha) of 20. The Plant response rating ([12]; 500 g ai/ha) was 50, the Plant response rating ([12]; 1000 g ai/ha) was 70 and the pest or weed control at 125 g/ha ([13]; 125 g ai/ha) was 40%. The pest or weed control at 500 g/ha ([13]; 500 g ai/ha) was 80%, the pest or weed control at 125 g/ha ([14]; 125 g ai/ha) was 80% and the pest or weed control at 500 g/ha ([14]; 500 g ai/ha) was 90%. The Plant response rating ([15]; 125 g ai/ha) was 30, the Plant response rating ([15]; 250 g ai/ha) was 80 and the Plant response rating ([15]; 500 g ai/ha) was 95. For the same molecule, the Plant response rating ([15]; 1000 g ai/ha) was 100, the pest or weed control at 125 g/ha ([16]; 125 g ai/ha) was 0% and the pest or weed control at 500 g/ha ([16]; 500 g ai/ha) was 30%. It also gave a pest or weed control at 125 g/ha ([17]; 125 g ai/ha) of 70%, a pest or weed control at 500 g/ha ([17]; 500 g ai/ha) of 90% and a pest or weed control at 125 g/ha ([18]; 125 g ai/ha) of 70%. The pest or weed control at 500 g/ha ([18]; 500 g ai/ha) was 90%.
